# Measurements as given in US6913882B2, “Methods of screening for B cell activity modulators” (Affymetrix, Inc., priority 1999, dated 2005).
# Where two headings read alike, the source gives them in different places.
# Assays:
# Egr-1 = assay: B cell activation with PD98059 titration, Egr-1 upregulation monitored on expression arrays; format: cell-based, mice
# Protocol: (§1) Splenic B cells from non-transgenic, Ig^HEL or sHEL/Ig^HEL transgenic mice were purified at room temperature in 1% bovine calf serum in RPMI. The spleen cells were stained with CD4, CD8 and Mac-1 FITC conjugated antibodies (Caltag) and depleted of T cells and macrophages with sheep anti-FITC magnetic beads (Perseptive Biosystems). The remaining cells were 85-95% B220 positive and were either lysed immediately (naive and tolerant cell preps) or stimulated in RPMI with 1% serum at 37° C. at 2-3×10^6 cells/ml. For stimulation experiments, HEL (Sigma) was used at 500 ng/ml, goat anti-mu (Jackson Labs) at 10 μg/ml, FK506 at 10 ng/ml, PD98059 (NEB) at 20 μM unless stated otherwise, ionomycin at 1 μM and EGTA at 3 mM. Cells were preincubated for 45 minutes with PD98059, 15 minutes with FK506 and 2 minutes with EGTA before addition of HEL or anti-mu. Mock stimulations were performed by addition of carrier alone for stimuli or inhibitors. At the end of the incubation, the cells were pelleted by centrifugation, resuspended in a minimal volume of medium (about 50 μl) by pipetting and lysed in 0.5-1 ml Trizol (Gibco BRL).
# Trizol lysates were phenol-extracted and precipitated with isopropanol. Poly A+ RNA was purified with Oligotex (Qiagen). cDNA was synthesised with a Superscriptll cDNA synthesis kit (Gibco BRL) using a T7:(dT)24 oligo to prime the first strand and purified by phenol extraction and ethanol precipitation. The cDNA was used as a template for in vitro transcription (IVT) using the Megascript system (Ambion) with the inclusion of biotinylated CTP and UTP. […]
# An intensity for each gene was calculated based on a trimmed mean of the PM—MM values. […]
# In addition to NFAT, the ERK pathway is also activated in foreign or self antigen-stimulated cells. To determine downstream transcriptional effects of ERK, the effect of MEK, an ERK kinase, on B cell activation was determined. The MEK inhibitor PD98059 was titrated in B cell activation experiments and gene expression was monitored using one of the four arrays in the set (approximately 1600 genes). […]
# early response genes = assay: B cell activation (HEL or anti-mu, 1 hr) with FK506, EGTA or PD98059, early response gene expression on arrays; format: cell-based, mice
# Protocol: as §1
# Trizol lysates were phenol-extracted and precipitated with isopropanol. Poly A+ RNA was purified with Oligotex (Qiagen). cDNA was synthesised with a Superscriptll cDNA synthesis kit (Gibco BRL) using a T7:(dT)24 oligo to prime the first strand and purified by phenol extraction and ethanol precipitation. […]
# Each gene on the arrays was tiled as a collection of approximately 20 probe pairs. […] The perfect match—mismatch intensities (PM—MM) were calculated for each probe pair for each gene in each experiment. […] Positive t values associated with a probability of less than 0.1 were scored as increased, negative t values with a probability of less than 0.1 were scored as decreased. The number of increased and decreased probe pairs associated with each gene was determined and called npos and nneg respectively (of the approximately 20 probe pairs tiled for each gene). […] The probability of scoring npos or more of the total number of probe pairs was determined. […]
# B cell = B cell death on activation in the presence of FK506; format: cell-based
compound,measurement,setting,value
COc1cccc(-c2cc(=O)c3ccccc3o2)c1N [PD98059],inhibition of upregulation of Egr-1,Egr-1; 20 μM PD98059,totally inhibited
same,IC50,"Egr-1; B cell activation, PD98059 titrated, read-out: concentration at which upregulation of Egr-1 was 50% inhibited",5 to 10 µM
same,IC50,"Egr-1; anti-mu stimulation of non-transgenic B cells, FIG. 3D, read-out: IC50 for inhibition of upregulation of Egr-1",~5 µM
same,"sensitivity of induction of three transcripts (Egr-1, NAB2 and Gfi-1) upregulated by both self and foreign antigen","early response genes; FIG. 3D (PD98059), FIG. 3A (FK506)",sensitive
same,sensitivity of regulation of other early response genes relative to Egr-1,early response genes; PD98059 titration,less sensitive
C=CC[C@@H]1/C=C(\C)C[C@H](C)C[C@H](OC)[C@H]2O[C@@](O)(C(=O)C(=O)N3CCCC[C@H]3C(=O)O[C@H](/C(C)=C/[C@@H]3CC[C@@H](O)[C@H](OC)C3)[C@H](C)[C@@H](O)CC1=O)[C@H](C)C[C@@H]2OC [FK506],B cell death on activation,B cell,increased B cell death
O=C(O)CN(CCOCCOCCN(CC(=O)O)CC(=O)O)CC(=O)O [EGTA],effect on the transcript profile of stimulated naïve cells,"early response genes; EGTA, FIG. 3C",essentially the same effect on the transcript profile as FK506
